# Data taken from PMC12040169 (PLOS Biology, 2025).
# Assay: in vitro
# Details: human, hela cells, % viability
row,SMILES,"viability at 28.5 h, 10 µM [%]"
1,O=C(O)CN1C(=O)c2ccc(C(=O)c3ccc4c(c3)C(=O)N(CC(=O)O)C4=O)cc2C1=O [CBK262166],82.3
2,COc1ccc(-c2nc(NC(=O)Cc3ccccc3OC)cnc2-c2cccc(C)c2)cn1 [CBK036839],111
3,CC(=O)N1CCCC(c2nc(-c3ccncc3)ncc2-c2ccccc2)C1 (stereo not drawn) [CBK291110],82.2
4,O=[N+]([O-])c1ccc(N2CCN(S(=O)(=O)c3ccc4ccccc4c3)CC2)cc1NCc1ccco1 [CBK264417],108
5,CCc1noc(C(C)N2CCN(CC(=O)NCc3ccco3)CC2)n1 (stereo not drawn) [CBK305368],116
6,CCCC(NC(=O)C1C=CCN1S(C)(=O)=O)c1cccs1 (stereo not drawn) [CBK282668],92.9
7,Cc1ccccc1OCc1nnc(SCC(=O)c2ccc3c(c2)Cc2ccccc2-3)n1C [CBK265829],93.9
8,O=C(O)C1C2C=CC(O2)C1C(=O)NCc1ccccn1 (stereo not drawn) [CBK058859],99.1
9,Cc1cccc(NS(=O)(=O)c2ccc(OCC(=O)Nc3ccc4c(c3)OCCO4)cc2)c1 [CBK268068],111
10,Cc1noc(C)c1CN1CCC(Cc2ccccc2)CC1 [CBK305752],96.8
11,COc1cc(Cn2c(=O)[nH]c3ncc(-c4ccco4)nc32)cc(OC)c1OC [CBK064461],106
12,CN(C(=O)c1cccn1C)C1CCN(c2ncnc3ccccc23)CC1 [CBK306110],91.8
13,COC(=O)CNC(c1ccccc1)c1cc(Br)ccc1NC(C)=O (stereo not drawn) [CBK262976],119
14,O=C(O)CSc1cccc([N+](=O)[O-])c1 [CBK110160],101
15,FC(F)(F)Oc1cccc(OCCOc2nccnc2N2CCNCC2)c1 [CBK014323G],100
16,O=[N+]([O-])c1ccc(OCCOc2nccnc2N2CCNCC2)c2ncccc12 [CBK000623C],94.9
17,OC1CCN(c2nccc(C(F)(F)F)n2)CC1 [CBK038372],92.1
18,COc1ccc(Cl)cc1NS(=O)(=O)N1CCOCC1 [CBK269937],93
19,O=C(NCc1cccc(C(F)(F)F)c1)c1ccccc1-n1cccc1 [CBK149598],100
20,O=C(O)C1=CC(c2ccccc2)=NS(=O)(=O)N1 [CBK286828],108
21,OCCn1c(-c2ccc(Br)cc2)cn2c3ccccc3nc12 [CBK262167],95.2

row,SMILES,"viability at 28.5 h, 10 µM [%]"
1,CC(C)N/C(=N/S(=O)(=O)c1ccccc1)c1ccccc1 [CBK262346],98.2
2,Cc1ccc(N)c(C(=O)CCCCC(=O)O)c1 [CBK260970],90.5
3,O=C(O)c1c(Br)c(Br)c(Br)c(Br)c1C(=O)NCCc1ccccc1 [CBK261702],90.7
4,O=C(CCn1cnc2ccccc21)NNC(=O)Nc1cccc(C(F)(F)F)c1 [CBK269093],93.9
5,CCOC(=O)N1CCN(S(=O)(=O)c2ccc3c(c2)oc(=O)n3CC)CC1 [CBK305055],99
6,O=C(CN1CCCN(c2nccs2)CC1)Nc1cc(Cl)ccc1Cl [CBK305921],99.7
7,Cc1ccc(-c2nccnc2OCc2ccccc2)cc1C [CBK106861],90.8
8,COc1ccc(/C=C/C(=O)Nc2cc(S(N)(=O)=O)ccc2C)cc1 [CBK262651],102
9,COC(=O)c1c(NC(=S)Nc2cnccn2)sc2c1CCC2 [CBK266935],90.3
10,COc1cccc(C(=O)N2Cc3ccccc3CC2C(=O)O)c1 (stereo not drawn) [CBK287150],102
11,COc1ccc(OC)c(NC(=O)c2c[nH]c(=O)n(-c3ccc(F)cc3)c2=O)c1 [CBK287552],99
12,Cc1nc2c(c(=O)[nH]1)CCN(Cc1cc(C)n(C3CC3)c1C)C2 [CBK282338],89.2
13,Cc1ccc2c(C)c(C(=O)Nc3sc4c(c3C(=O)NCc3ccco3)CCC4)oc2c1 [CBK267662],99.2
14,COc1cccc(C2=CC(c3ccccc3Cl)N3N=NNC3=N2)c1 (stereo not drawn) [CBK287943],84.4
15,COc1ccc(-c2cnc(NCCOc3ccccc3)c(C(=O)NCC3COc4ccccc4O3)c2)cc1 (stereo not drawn) [CBK076332],97.2
16,CCn1c(CN2CCOCC2)nnc1SCC(=O)Nc1cccc(Br)c1 [CBK269740],85.6
17,Cc1cc(NC(=O)c2cc(C)oc2C)no1 [CBK058081],88.7
18,CCN(CC)S(=O)(=O)c1ccc(OC)c(NC(=O)C2c3ccccc3Oc3ccccc32)c1 [CBK264774],101
19,CS(=O)(=O)c1ccc(-c2nccnc2N2CCN(c3ccncc3)CC2)cc1 [CBK036924],98.5
20,O=C(CN1C(=O)[C@@H]2CCCN2C(=O)c2ccccc21)N1CCCC1 [CBK282434],104
21,O=C(O)c1cn(C2CC2)c2cc(N3CCN(C(=S)Nc4ccc5c(c4)OCCO5)CC3)c(F)cc2c1=O [CBK268916],90.9

row,SMILES,"viability at 28.5 h, 10 µM [%]"
1,CC1=C(C(=O)OCc2ccccc2)C2(C(=O)Nc3ccccc32)C(C(=O)OCc2ccccc2)=C(N)O1 (stereo not drawn) [CBK262576],89.6
2,O=C(CN1C(=O)c2ccc(Br)cc2C1=O)OCc1ccc(S(=O)(=O)N2CCOCC2)cc1 [CBK267505],84.6
3,Cc1ccc2c(c1)C(=O)CC1(CCN(C(=O)OC(C)(C)C)CC1)O2 [CBK283599],98
4,Clc1ccc(/C=N/Nc2nnn[nH]2)c(Cl)c1 [CBK262034],98
5,COc1ccc(OC)c(C2C(C(=O)c3ccc(C)cc3)=C(O)C(=O)N2Cc2cccnc2)c1 (stereo not drawn) [CBK264492],113
6,COc1cc(C=CC(=O)O)ccc1OCC(=O)N1CCN(CC(=O)NC(C)(C)C)CC1 [CBK296987],114
7,CN(C)CC(=O)N1CCN(c2ccc(C(=O)c3ccccc3)cc2[N+](=O)[O-])CC1 [CBK296699],85.4
8,N#Cc1ccc(Cn2ccnc(N3CCC(Sc4ccccc4)CC3)c2=O)cc1 [CBK153653],98.2
9,CC(C)c1nc(NCc2nnc3n2CCC3)nc(N(C)C)n1 [CBK305117],99.5
10,Cc1nn(CC(C)C(=O)N2CCCC(CN(C)C)C2)c(C)c1Cl (stereo not drawn) [CBK282186],102
11,Cc1sc(C(N)=O)cc1[N+](=O)[O-] [CBK066863],106
12,COc1ccc(/C=N\N(C)c2nc(-c3ccccc3)cc(-c3ccc(Br)cc3)n2)cc1OC [CBK261799],104
13,CCc1c(C)nc2ccccc2c1SCCC(=O)N(C)C [CBK149718T],99.9
14,Cc1ccn2cc(-c3cc4c(ccc5ccccc54)oc3=O)nc2c1 [CBK287313],100
15,Nc1ncc(-c2ccc(C(F)(F)F)cc2)c(C2CCCN(C(=O)C3CCCCC3)C2)n1 (stereo not drawn) [CBK285791],98.9
16,Cn1nc(NC(=O)c2cnccn2)c2c(N3CCOCC3)cccc21 [CBK306716],100
17,O=C(O)CCc1ccc(S(=O)(=O)Nc2ccccc2Cc2ccccc2)cc1 [CBK295616],99.6
18,Cc1cccc(C)c1NC(=O)CN1CCN(c2nccnc2OCC2COc3ccccc3O2)CC1 (stereo not drawn) [CBK082801T],88.9
19,O=c1[nH]c2ncc(-c3ccoc3)nc2n1C1CCOCC1 [CBK064973],119
20,Cc1nc(C(Cc2ccsc2)NC(=O)c2cnn(C)c2)sc1C (stereo not drawn) [CBK284779],104
21,CC(NC(=O)c1ncoc1-c1ccc(F)cc1)c1ccccn1 (stereo not drawn) [CBK283846],90.9

row,SMILES,"viability at 28.5 h, 10 µM [%]"
1,Cc1ccc(C2CC(=O)Nc3nc(-c4ccccc4)[nH]c(=O)c32)c(C)c1 (stereo not drawn) [CBK287998],108
2,Cn1cc(C(=O)N2CCC(c3ccccc3)C2)c2ccccc2c1=O (stereo not drawn) [CBK281921],103
3,CCC(C(=O)O)c1ccc(-n2sc3ccccc3c2=O)cc1 (stereo not drawn) [CBK011773],105
4,COC(=O)c1cc(Br)ccc1NC(=O)COc1ccccc1C [CBK263715],89.4
5,OC1(c2cccnc2F)CCN(Cc2cccc(F)c2)CC1 [CBK284373],85.5
6,Cc1cc(C(=O)N2CCC(c3nc(C)n4c(C)csc34)CC2)on1 [CBK285247],99.3
7,Cc1onc(-c2ccccc2)c1C(=O)N1CCC(C(N)=O)CC1 [CBK158721],84.4
8,Cn1ccnc1C1(O)CCN(C(=O)c2ccccc2F)CC1 [CBK283536],105
9,CCN(CC)C(=O)C1CCCN(C(=O)NCc2cc(OC)c(OC)c(OC)c2)C1 (stereo not drawn) [CBK156130],86.8
10,CC(C)Nc1cc(SCc2cccc(C(F)(F)F)c2)ncn1 [CBK107161],88.2
11,Cc1nnc(CCNC(=O)c2cccc(C#N)c2)n1C [CBK306017],85.4
12,FC(F)(F)c1ccc(OCc2ccc(-c3ccccc3)cc2)nc1 [CBK115830],94.6
13,CCOc1ccc(-c2cc(C(=O)Nc3cccc(C(=O)O)c3)no2)cc1 [CBK299776],93.9
14,CCn1cc(C(=O)O)c(=O)c2cnc(N3CCN(C(=S)NC(=O)C4c5ccccc5Oc5ccccc54)CC3)nc21 [CBK267114],91.6
15,COc1ccc(CCNc2ccccc2[N+](=O)[O-])cc1OC [CBK074819],104
16,O=S(=O)(c1ccccc1)N1CC2(CCNCC2)c2ccccc21 [CBK137413],84.2
17,Cc1ccc(S(=O)(=O)NCC(=O)N2CCN(Cc3ccccc3)CC2)cc1 [CBK265991],104
18,COc1cccc(C(=O)N2CCCC(c3cc4ncccc4[nH]3)C2)c1 (stereo not drawn) [CBK283416],104
19,O=C(O)/C=C/c1cn([C@@H]2O[C@H](CO)[C@H](O)C2O)c(=O)[nH]c1=O (stereo partly drawn) [CBK201270],96.7
20,Cc1nn(C)cc1CNC(=O)c1cc2ncc(Br)cn2n1 [CBK304336],102
21,CN(C)CCNC(=O)c1cccc(-c2cnc3[nH]c(=O)n(Cc4ccc(S(C)(=O)=O)cc4)c3n2)c1 [CBK065069],109

# Same assay, conditions: human, hela cells, % viability, bulk resorufin, single well
row,SMILES,"viability at 28.5 h, 10 µM [%]"
1,O=C(COc1ccc(/C=C2\C(=O)NC(=O)N(c3ccc(O)cc3)C2=O)cc1Cl)Nc1ccccc1 [CBK265425],84.4
2,COc1ccc2c(c1)COC1(CCN(C(=O)Nc3cccs3)CC1)O2 [CBK060803],105
3,CN(C)Cc1c(O)[nH]c(=S)[nH]c1=O [CBK262474],92.6
